In patent US7727558B2, “Polymeric delivery agents and delivery agent compounds” (Emisphere Technologies, Inc., priority 1999, dated 2010):
Where “and” joins values, the source holds several entries; their conditions need not be identical. Equal entries are not always repeated.

Assay: Oral administration of rhGH with delivery agent or conjugate in rats, serum rhGH by immunoassay
Type: in vivo, Sprague-Dawley rats
Conditions: individual rat, 200 mg/kg conjugate = 20 mg/kg delivery agent
Method: Oral gavage (PO) and/or intracolonic (IC) dosing solutions of delivery agent compound and rhGH in water, phosphate buffer (PB) or 5% aqueous ethanol were prepared. Typically, a solution of the conjugate was prepared by mixing in water and stirred. The final dosing solutions were prepared by mixing the conjugate solution with an rhGH stock solution (typically 15 mg rhGH/ml) and diluting to the desired volume (usually 3.0 ml). The compounds and rhGH dose amounts are listed below in Table 1.
Male Sprague-Dawley rats weighing between 200-250 g were fasted for 24 hours and administered ketamine (44 mg/kg) and chlorpromazine (1.5 mg/kg) 15 minutes prior to dosing. A dosing group of five rats was administered one of the dosing solutions. For oral gavage (PO), an […] Rusch 8 French catheter was adapted to a 1 ml syringe with a pipette tip. The syringe was filled with dosing solution by drawing the solution through the catheter, which was then wiped dry. The catheter was placed down the esophagus leaving 1 cm of tubing past the rat's incisors. Solution was administered by pressing the syringe plunger. For intracolonic (IC) dosing, a 7.5 cm Rusch catheter tube (French 8 or 6) was adapted to a syringe with an Eppendorf pipette tip. The syringe was filled with the 0.5 ml dosing solution by drawing the solution through the catheter tube. The catheter tube was wiped dry. K-Y jelly was applied to the tip, avoiding contact with the eye of the tube, and the tube was inserted into the colon through the anus until the tube was no longer visible. The solution was injected by pressing the syringe plunger, and the tube was removed.
Blood samples were collected serially from the tail artery, typically at time=0, 15, 30, 45, 60 and 90 minutes for oral and 0, 10, 20, 30, 60 and 90 for IC dosing. Serum rHGH concentrations were quantified by an rHGH immunoassay test kit (Kit # K1F4015 from Genzyme Corporation Inc., Cambridge, Mass.). Previous studies indicated baseline values of about zero.
The experiments were performed at 1/10 the delivery agent concentration versus that of the conjugate. Thus, at a dose of 200 mg/kg conjugate, the actual amount of delivery agent dosed was 20 mg/kg.

O=C(O)CCCCCCCNC(=O)c1ccccc1O [delivery agent I]
Serum rhGH concentration, Min15 (15 min, listed as (a)): 45.34 and 0 and 64.2 and 43.14 and 84.73 and 79.98 and 48.72 | Serum rhGH concentration, Min30 (30 min, listed as (a)): 46.52 and 58.44 and 18.99 and 23.44 and 13.19 and 22.69 and 1.82 | Serum rhGH concentration, Min45 (45 min, listed as (a)): 35.53 and 0 (4×) and 4.29 and 18.35 | Serum rhGH concentration, Min60 (60 min, listed as (a)): 34.885 and 3.922 and 10.13 and 15.93 and 10.565 and 5.49 and 7.905 | Serum rhGH concentration, Min90 (90 min, listed as (a)): 2.715 and 0 (5×) and 1.47 | Serum rhGH concentration, Base line (baseline (time 0)): 0
